“Also recorded” adds a separate entry of the source. Like-named read-outs stand apart in the source and are kept apart here.
How the values were obtained:
[1] = system: ubiquinone binding site of complex I (IQ); experiment: High-throughput screen: ROS production from ubiquinone binding site of complex I (IQ), isolated skeletal muscle mitochondria; type: biochemical, rat; conditions: for IQ: percent change in ROS from DMSO controls; for % Reduction in ROS production (IQ): Table 2, 5 mM succinate, compounds 2.5 μM, percent change from DMSO, positive control −100%
[2] = target: T1, flavin binding site of complex I (IF) (Rattus norvegicus, UniProt Q5XIH3); experiment: High-throughput screen: ROS production from flavin binding site of complex I (IF); type: biochemical
T1 construct: freshly isolated muscle mitochondria were assayed; from tissue; host or cells: rat skeletal muscle mitochondria (Wistar, Harlan Laboratories)
T1 sequence (Q5XIH3 21-464 limits assumed, one chain of several): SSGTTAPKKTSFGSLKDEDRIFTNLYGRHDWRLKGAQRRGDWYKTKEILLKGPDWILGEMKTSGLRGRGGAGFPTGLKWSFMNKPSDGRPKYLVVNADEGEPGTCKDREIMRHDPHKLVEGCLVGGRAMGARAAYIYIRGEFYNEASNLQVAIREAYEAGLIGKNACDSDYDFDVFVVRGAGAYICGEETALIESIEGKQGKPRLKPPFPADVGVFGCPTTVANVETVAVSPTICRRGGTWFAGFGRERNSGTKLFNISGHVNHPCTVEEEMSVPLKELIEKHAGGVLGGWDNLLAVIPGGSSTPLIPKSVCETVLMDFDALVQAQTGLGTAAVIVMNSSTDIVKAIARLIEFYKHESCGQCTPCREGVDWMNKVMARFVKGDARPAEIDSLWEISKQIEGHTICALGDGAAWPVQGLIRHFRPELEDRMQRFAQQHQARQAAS

[3] = target: T2, outer ubiquinone binding site of complex III (IIIQO) (Rattus norvegicus, UniProt P00159+P20788); experiment: High-throughput screen: ROS production from outer ubiquinone binding site of complex III (IIIQO); type: biochemical
T2 construct: freshly isolated muscle mitochondria were assayed; from tissue; host or cells: rat skeletal muscle mitochondria (Wistar, Harlan Laboratories)

[4] = target: T3, succinate dehydrogenase/complex II (SDH) (Rattus norvegicus, UniProt P21913+Q641Z9+Q6PCT8+Q920L2); experiment: High-throughput screen: ROS production from succinate dehydrogenase/complex II (SDH); type: biochemical; conditions: for inhibition at 2.5 µM / SDH: percent change in ROS from DMSO controls; for % Reduction in ROS Production (SDH): Table 5, 15 μM palmitoyl carnitine, 2.5 μM antimycin A, 2 μM myxothiazol, compounds 2.5 μM, percent change from DMSO
T3 construct: freshly isolated muscle mitochondria were assayed; from tissue; host or cells: rat skeletal muscle mitochondria (Wistar, Harlan Laboratories)
T3 sequence (Q920L2 35-656): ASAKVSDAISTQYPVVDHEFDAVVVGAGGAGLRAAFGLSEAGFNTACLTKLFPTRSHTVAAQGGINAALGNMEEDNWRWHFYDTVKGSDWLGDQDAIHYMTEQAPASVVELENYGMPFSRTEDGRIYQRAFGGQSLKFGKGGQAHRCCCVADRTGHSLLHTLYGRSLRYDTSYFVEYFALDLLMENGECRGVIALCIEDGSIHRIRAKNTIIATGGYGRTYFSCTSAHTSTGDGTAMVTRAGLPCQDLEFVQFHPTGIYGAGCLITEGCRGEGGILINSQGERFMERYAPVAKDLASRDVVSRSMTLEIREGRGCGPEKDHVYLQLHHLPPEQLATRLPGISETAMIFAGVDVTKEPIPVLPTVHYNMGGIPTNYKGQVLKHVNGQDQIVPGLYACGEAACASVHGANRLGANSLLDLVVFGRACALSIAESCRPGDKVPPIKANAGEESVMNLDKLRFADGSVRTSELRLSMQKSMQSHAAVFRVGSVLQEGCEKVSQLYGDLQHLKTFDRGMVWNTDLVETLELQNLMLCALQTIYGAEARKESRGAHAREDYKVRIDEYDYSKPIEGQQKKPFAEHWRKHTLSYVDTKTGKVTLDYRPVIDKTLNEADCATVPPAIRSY
T3 sequence (P21913 31-282): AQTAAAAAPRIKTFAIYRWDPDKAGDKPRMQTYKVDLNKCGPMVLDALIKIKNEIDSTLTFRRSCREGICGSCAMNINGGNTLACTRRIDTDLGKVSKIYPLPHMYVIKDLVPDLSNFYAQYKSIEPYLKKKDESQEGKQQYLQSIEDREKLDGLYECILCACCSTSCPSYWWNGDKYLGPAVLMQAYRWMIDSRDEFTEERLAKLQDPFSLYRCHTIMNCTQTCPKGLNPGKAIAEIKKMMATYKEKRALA
T3 sequence (Q641Z9 30-169 limits assumed): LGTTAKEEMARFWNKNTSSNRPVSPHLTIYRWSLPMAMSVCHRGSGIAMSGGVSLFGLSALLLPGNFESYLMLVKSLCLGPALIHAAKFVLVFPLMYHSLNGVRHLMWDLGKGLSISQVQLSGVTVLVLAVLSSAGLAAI
T3 sequence (Q6PCT8 57-159): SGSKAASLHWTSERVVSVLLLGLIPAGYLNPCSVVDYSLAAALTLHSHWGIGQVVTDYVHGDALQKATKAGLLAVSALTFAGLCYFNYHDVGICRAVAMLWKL
Protocol: (§1) Skeletal muscle mitochondria were isolated from 5-8 week old female Wistar rats (Harlan Laboratories). Minced muscle was homogenized in buffer containing bacterial protease Type VIII prior to differential centrifugation to separate mitochondria from other tissue components. Unless otherwise stated, freshly isolated muscle mitochondria were assayed in buffer containing 120 mM KCl, 5 mM HEPES, 1 mM EGTA, 0.3% (w/v) bovine serum albumin. Where indicated, CaCl2 was added to yield a final free concentration of 250 nM calcium at pH 7.0 at 37° C.
Just prior to use, plates were brought to room temperature and diluted 300-fold with standard buffer (13.3X=33.3 μM). To monitor the performance of each assay throughout screening and to provide intra-plate normalization reference points, DMSO negative controls and known mitochondrial inhibitor positive controls were included on each Master compound plate.
(§2) Total amounts of superoxide and H2O2 production were determined fluorometrically as H2O2, without distinguishing between them, in the presence of exogenous superoxide dismutase (25 units/mL final), horseradish peroxidase (1 unit/mL final), and Amplex UltraRed (25 μM final) as described (Affourtit, C. et al. (2012) Measurement of proton leak and electron leak in isolated mitochondria. Methods Mol. Biol. 810: 165-82). Just prior to use, a bulk 3.3X solution was made in standard buffer and distributed into a 2 mL deep well 96-well transfer plate.
To assess the effects of a compound on ROS production from succinate dehydrogenase/complex II (SDH), Start Solution containing 15 μM palmitoyl carnitine, 2.5 μM antimycin A and 2 μM myxothiazol was distributed into standard 96-well transfer plates. A Biomek FX workstation was programmed to dispense solutions into black 96-well assay plates. Solutions were dispensed to all assay plates in the following order: ROS Detection solution described in Example 3, Mitochondria solution described in Example 1 to a final concentration of 0.3 mg/ml, and Compound dilutions described in Example 2. Duplicate assay plates were made and each was initiated by the addition of 3.3X Start solution containing 15 μM palmitoyl carnitine, 2.5 μM antimycin A and 2 μM myxothiazol. Plates were incubated in the dark at room temperature for 30-40 minutes before acquiring endpoint fluorescence using a Victor 3V plate reader (Perkin Elmer) equipped with 550/590 nm excitation/emission filters.
The fluorescence values in each well were scaled as the percent change from the intra-plate DMSO controls with the appropriate inhibitor positive controls defined as −100%. Following initial scaling, intra-plate normalized values were subjected to Tukey's two-way median polish to remove row and column dependent positional effects (Malo et al., 2006).

[5] = target: T4, glycerol-3-phosphate dehydrogenase (GPDH) (Rattus norvegicus, UniProt P35571); experiment: High-throughput screen: ROS production from glycerol-3-phosphate dehydrogenase (GPDH); type: biochemical; design: inhibition: dose or concentration left out as unconfirmed; conditions: for inhibition / GPDH: percent change in ROS from DMSO controls
T4 construct: The activity of GPDH in intact mitochondria (0.3 mg/mL) was measured; from tissue; host or cells: rat skeletal muscle mitochondria (Wistar, Harlan Laboratories)
T4 sequence (P35571 43-727): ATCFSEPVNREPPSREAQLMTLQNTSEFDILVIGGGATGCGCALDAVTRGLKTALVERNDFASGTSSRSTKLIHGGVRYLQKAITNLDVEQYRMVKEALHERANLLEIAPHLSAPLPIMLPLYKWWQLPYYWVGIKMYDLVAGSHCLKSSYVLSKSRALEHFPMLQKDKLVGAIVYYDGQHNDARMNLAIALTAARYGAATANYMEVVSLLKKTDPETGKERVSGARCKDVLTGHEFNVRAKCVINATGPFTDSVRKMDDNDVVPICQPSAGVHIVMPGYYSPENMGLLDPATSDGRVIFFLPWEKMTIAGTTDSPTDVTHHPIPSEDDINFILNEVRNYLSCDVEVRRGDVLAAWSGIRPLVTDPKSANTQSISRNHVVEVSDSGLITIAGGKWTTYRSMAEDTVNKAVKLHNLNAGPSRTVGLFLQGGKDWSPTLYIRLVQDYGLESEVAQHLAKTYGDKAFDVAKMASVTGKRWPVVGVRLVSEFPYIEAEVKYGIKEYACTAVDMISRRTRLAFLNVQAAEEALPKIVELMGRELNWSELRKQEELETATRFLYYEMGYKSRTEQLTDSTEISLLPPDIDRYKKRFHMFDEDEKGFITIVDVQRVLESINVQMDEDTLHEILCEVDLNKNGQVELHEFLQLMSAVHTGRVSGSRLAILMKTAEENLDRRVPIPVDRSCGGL
Protocol: as §1
Compounds (10 mM in DMSO) were randomly selected from a library of 24,000 compounds obtained from ChemBridge and curated by the lab of Robert Hughes at the Buck Institute. Master screening plates were prepared using a Biomek FX liquid handling workstation (Beckman) to transfer 1 μL of each compound into individual wells on 96-well storage plates (80 compounds per plate). Master plates were sealed with foil and stored at −80° C. Just prior to use, plates were brought to room temperature and diluted 300-fold with standard buffer (13.3X=33.3 μM). To monitor the performance of each assay throughout screening and to provide intra-plate normalization reference points, DMSO negative controls and known mitochondrial inhibitor positive controls were included on each Master compound plate.
as §2
To assess the effects of a compound on ROS production from glycerol-3-phosphate dehydrogenase (GPDH), Start Solution containing 25 mM glycerol phosphate, 4 μM rotenone, 2.5 μM antimycin A, 1 mM malonate, 2 μM myxothiazol was distributed into standard 96-well transfer plates. A Biomek FX workstation was programmed to dispense solutions into black 96-well assay plates. Solutions were dispensed to all assay plates in the following order: ROS Detection solution described in Example 3, Mitochondria solution described in Example 1 to a final concentration of 0.2 mg/ml, and Compound dilutions described in Example 2. Duplicate assay plates were made and each was initiated by the addition of 3.3X Start solution containing 25 mM glycerol phosphate, 4 μM rotenone, 2.5 μM antimycin A, 1 mM malonate, 2 μM myxothiazol. Plates were incubated in the dark at room temperature for 30-40 minutes before acquiring endpoint fluorescence using a Victor 3V plate reader (Perkin Elmer) equipped with 550/590 nm excitation/emission filters.
The fluorescence values in each well were scaled as the percent change from the intra-plate DMSO controls. […] Following initial scaling, intra-plate normalized values were subjected to Tukey's two-way median polish to remove row and column dependent positional effects (Malo et al., 2006).

site IQ = experiment: Retest of IQ ROS production (expanded microplate panel / cuvette); type: biochemical, rat; conditions: retest; subsaturating (0.5 mM) succinate
Protocol: Compounds identified as site-selective hits as well as structural analogs were re-sourced from ChemBridge and dissolved in DMSO as 80 mM stocks. Master Titration Plates were prepared manually by serially diluting 80 mM compound stocks between 0.08 and 80 mM on 96-well microplates. Four compounds were titrated in duplicate on each plate. Additional DMSO controls were interspersed across these plates to serve as local normalization controls during analysis since two-way median polishing was not appropriate. Just prior to use, compounds were diluted 100-fold with standard buffer (10X). The same known inhibitor positive controls were included on each plate as during high-throughput screening.
The five core ROS assays and single ΔΨm assay were carried out as in the initial high-throughput screen. In addition, several assays were included to help validate the specificity of the compounds for a given site of production. All compounds were titrated against separate assays targeting IQ ROS and IIIQo ROS using subsaturating (0.5 mM final) succinate. […] Specifically, ΔΨm was monitored separately with 5 mM succinate (in the presence of 4 μM rotenone) in addition to glutamate and malate as before. The use of different substrates was designed to reveal compounds that disrupt mitochondrial function in a substrate specific manner.
Most frequently, these changes involved the use of different substrates to supply electrons from an alternative entry point in the chain. If a site of ROS production is being targeted selectively by a compound, then in many cases the supply of electrons should not influence the effectiveness of this compound at suppressing ROS production. […] Alternative conditions are listed below: • 1) IQ ROS: 5 mM succinate with 1 mM glutamate • 2) IF ROS: 5 mM malate only as substrate (in the presence of 4 μM rotenone) • 3) IIIQo ROS: 5 mM succinate (in the presence of 3 mM malonate, 4 uM rotenone, and 2.5 μM antimycin A) • 4) IIIQo ROS: 25 mM glycerol phosphate (in the presence of 1 mM malonate, 4 μM rotenone, and 2.5 μM antimycin A) • 5) SDH: 0.5 mM succinate (in the presence of 4 uM rotenone, 2.5 uM antimycin A, and 2 μM myxothiazol) • 6) GPDH: Vary the concentration of glycerol phosphate in the presence or absence of 250 nM free calcium to allosterically activate GPDH (all in the presence of 4 μM rotenone, 2.5 uM antimycin A, 1 mM malonate, and 2 μM myxothiazol) • 7) ΔΨm: Vary the concentration of glycerol phosphate in the presence or absence of 250 nM free calcium to allosterically activate GPDH and in the presence or absence of 80 ng/mL nigericin (all in the presence of 4 μM rotenone)
The fluorescence values in each well were scaled in relation to the intra-plate DMSO and known inhibitor controls as in the high-throughput screen except that median values for local interspersed DMSO wells (3-6 wells) were used rather than just the 8 DMSO wells in columns 1 and 12. This normalization was applied in place of the two-way median polish used during high-throughput screening to minimize row and column effects. […] At this stage, strong candidates were not necessarily excluded from further testing if subtle off-target effects were observed (e.g. loss of specificity or signs of general inhibition at the highest concentrations). Rather, these candidates were often pursued for more detailed mechanistic studies with the expectation that subsequent structure activity analysis would provide insight into which structurally related compounds would provide the optimal specificity for a given site of production.
Candidate compounds that remained site-selective following robotics assisted retesting were subsequently tested for effects on ROS production and ΔΨm with a Varian Cary Eclipse fluorimeter (excitation 550 nm, emission at 590 nm). This experimental format allows kinetic measurements of ROS production and ΔΨm with more accurate temperature control, sample stirring, and background correction. […]

[6] = system: mitochondrial membrane potential (ΔΨm); experiment: Membrane potential (ΔΨm) counterscreen with TMRM; conditions: malate, nigericin
[7] = Table 3, 5 mM glutamate, 5 mM malate, 4 μM rotenone, compounds 2.5 μM, percent change from DMSO, positive control −100%, read-out: % Reduction in ROS production (IF)
[8] = Table 8, percent change in ROS from DMSO controls
[9] = Table 9, percent change in ROS from DMSO controls
[10] = Table 8, percent change in ROS from DMSO controls, read-out: IF
[11] = Table 4, 5 mM succinate, 4 μM rotenone, 2.5 μM antimycin A, compounds 2.5 μM, percent change from DMSO, read-out: % Reduction in ROS production (IIIQO)
[12] = Table 8, percent change in ROS from DMSO controls, read-out: IIIQO
[13] = Table 7, percent change in ROS from DMSO controls

| IIIQO [3, 8] | SDH ([4]; Table 8) | SDH ([4]; Table 9) | GPDH ([5]; Table 8) | GPDH ([5]; Table 9) | inhibition at 2.5 µM [3, 11] [%] | inhibition at 2.5 µM [3, 12] [%] | inhibition at 2.5 µM ([4]; Table 8) [%] | inhibition ([5]; Table 8) [%] | Structure (SMILES) | IQ ([1]; Table 7) | IQ ([1]; Table 8) | IQ ([1]; Table 9) | inhibition at 2.5 µM [2, 7] [%] | IF [2, 8] | IF [2, 9] | ΔΨm ([6]; Table 8, glutamate) | ΔΨm ([6]; Table 9, glutamate) | inhibition at 2.5 µM [2, 10] [%] | other results |
| --- | --- | --- | --- | --- | --- | --- | --- | --- | --- | --- | --- | --- | --- | --- | --- | --- | --- | --- | --- |
|  |  |  |  |  | 12 | 12 | -4 | 11 | CCC1CCCCN1C/C=C/c1ccc(N(C)C)cc1 (stereo not shown) [Compound 80] |  | 0 |  | 23 |  |  | 0 |  | 23 | inhibition at 2.5 µM ([5]; Table 6, 25 mM glycerol phosphate, rotenone, antimycin A, malonate, myxothiazol, compounds 2.5 μM, scaled to IQ positive controls, read-out: % Reduction in ROS Production (GPDH)): 11% |
| −10 | −35 |  | 0 |  |  |  |  |  | Cc1cc(OCC(O)CN(Cc2ccccc2)C(C)(C)C)ccc1[N+](=O)[O-] (stereo not shown) [Compound 82] |  | −2 |  |  | −34 |  | 0 |  |  | % Reduction in ROS production (IF) ([2]; Table 3, 5 mM glutamate, 5 mM malate, 4 μM rotenone, compounds 2.5 μM, percent change from DMSO, positive control −100%): −34%; % Reduction in ROS Production (SDH) [4]: −35% |
|  |  |  |  |  | 29 | 29 | 14 | 3 | Clc1ccc(N2CCN(CC(c3ccccc3)c3ccccc3)CC2)cc1 [Compound 83] |  | 2 |  |  |  |  | 1 |  | 1 | % Reduction in ROS Production (SDH) [4]: −14% |
| 0.8 | 0.7 | 0.7 | −0.2 | −0.2 |  |  |  |  | O=[N+]([O-])c1ccc(Oc2ccc(S(=O)(=O)Nc3ccc(F)cc3)cc2)cc1 [Compound 84] | −47.7 | −47.7 | −47.7 |  | −1.4 | −1.4 | −1.5 | −1.5 |  | % Reduction in ROS production (IQ) [1]: −47.7%; IF [2, 13]: −1.4; IIIQO [3, 13]: 0.8; IIIQO [3, 9]: 0.8; SDH ([4]; Table 7): 0.7; GPDH ([5]; Table 7): −0.2 |
| −0.8 | 3.6 | 3.6 | −3.3 | −3.3 |  |  |  |  | O=[N+]([O-])c1ccc(Oc2ccc(S(=O)(=O)Nc3ccc4c(c3)OCCO4)cc2)cc1 [Compound 85] | −50.6 | −50.6 | −50.6 |  | 0.5 | 0.5 | −0.9 | −0.9 |  | % Reduction in ROS production (IQ) [1]: −50.6%; IF [2, 13]: 0.5; IIIQO [3, 13]: −0.8; IIIQO [3, 9]: −0.8; SDH ([4]; Table 7): 3.6; GPDH ([5]; Table 7): −3.3 |

More lines, now with the values behind:

| Structure (SMILES) | IIIQO [3, 8] | SDH ([4]; Table 8) | SDH ([4]; Table 9) | GPDH ([5]; Table 8) | GPDH ([5]; Table 9) | inhibition at 2.5 µM [3, 11] [%] | inhibition at 2.5 µM [3, 12] [%] | inhibition at 2.5 µM ([4]; Table 8) [%] | inhibition ([5]; Table 8) [%] | IQ ([1]; Table 7) | IQ ([1]; Table 8) | IQ ([1]; Table 9) | inhibition at 2.5 µM [2, 7] [%] | IF [2, 8] | IF [2, 9] | ΔΨm ([6]; Table 8, glutamate) | ΔΨm ([6]; Table 9, glutamate) | inhibition at 2.5 µM [2, 10] [%] | other results |
| --- | --- | --- | --- | --- | --- | --- | --- | --- | --- | --- | --- | --- | --- | --- | --- | --- | --- | --- | --- |
| CN(C)CCN(Cc1ccccc1)Cc1ccc(C(F)(F)F)cc1 [Compound 29] | −3.2 | −0.1 | −0.1 | −2.4 | −2.4 |  |  |  |  | −2.1 | −2.1 | −2.1 | 18.1 | −18.1 | −18.1 | −0.6 | −0.6 |  | inhibition at 2.5 µM ([2]; Table 7, percent change in ROS from DMSO controls, read-out: IF): 18.1%; inhibition at 2.5 µM ([3]; Table 7, percent change in ROS from DMSO controls, read-out: IIIQO): 3.2%; inhibition at 2.5 µM ([3]; Table 9, percent change in ROS from DMSO controls, read-out: IIIQo): 3.2%; inhibition at 2.5 µM ([4]; Table 7): 0.1%; inhibition ([5]; Table 7): 2.4%; effect on IQ ROS with subsaturating substrate (site IQ): strong effects on IQ ROS with subsaturating substrate; also recorded: stronger off-target effects on IQ ROS when driven by low concentration succinate |
| Clc1ccc(C(NC2CCN(Cc3ccccc3)CC2)c2ccccc2)cc1 (stereo not shown) [Compound 78] |  |  |  |  |  | 30 | 30 | 5 | 6 |  | 2 |  | 37 |  |  | −1 |  | 37 |  |
| CN(C)c1ccc(C(=C2CN3CCC2CC3)c2ccc(N(C)C)cc2)cc1 [Compound 81] |  |  |  |  |  |  | 0 | 1 | 13 |  | 2 |  |  |  |  | −1 |  | 49 |  |

Reference: patent US20140128352A1, “COMPOUNDS AND METHODS FOR MODULATING MITOCHONDRIAL METABOLISM AND REACTIVE OXYGEN SPECIES PRODUCTION” (Buck Institute for Research on Aging, priority 2012, published 2014)
